Assay results from publication PMC9674830, “A glutamine-based single α-helix scaffold to target globular proteins” (Nature Communications, 2022).

Columns and labels:
Type in all cases: physicochemical
[1] = CD spectroscopy (helicity); details: 30 μM peptide, ratio taken as sign of monomeric helix
Method: Peptide samples for CD spectroscopy were diluted to a final concentration of 30 μM in a volume of 400 μL in either 20 mM phosphoric acid (pH 2.8) or sodium phosphate (pH 7.4) buffer. Spectra were obtained at 278 K (unless stated otherwise) in a Jasco 815 UV spectro-photopolarimeter with a 1 mm optical path cuvette using a data interval of 0.2 nm in the 190−260 nm range with a scanning speed of 50 nm min^−1 and 20 accumulations. A blank spectrum acquired on the pertaining buffer under the same experimental conditions was subtracted from the sample spectrum. Thermal denaturation experiments were performed by acquiring a single accumulation spectrum with the same parameters at 10 K intervals, with a temperature ramp speed of 10 K min^−1 and an equilibration time of 1 min.

[2] = NMR residue-specific helical propensity (pHel, CheSPI from backbone chemical shifts); details: 278 K, pH 7.4, 100 μM; 9 contiguous residues for (P3-7)2, 16 for (P3-7)3
Method: Peptide samples for NMR spectroscopy were diluted to a final concentration of 100 μM in a volume of 400 μL in either 20 mM phosphoric acid (pH 2.8) or sodium phosphate (pH 7.4) buffer with added 10% v/v D2O and 10 μM DSS for internal chemical shift referencing, then filled into Shigemi tubes (Shigemi Co. Ltd, Tokyo, Japan). All NMR experiments were recorded at 278 K (unless stated otherwise) on either a Bruker Avance III 600 MHz or a Bruker Avance NEO 800 MHz spectrometer, both equipped with TCI cryoprobes, using TopSpin 4.0.8 for data acquisition (Bruker, Billerica, MA). Unlabeled synthetic peptides P1-5, P2-6, P3-7, P5-9 were characterized by two-dimensional homonuclear (TOCSY and NOESY) and heteronuclear (^1H-^13C HSQC) experiments. The TOCSY and NOESY mixing times were set to 70 and 200 ms, respectively. Water suppression was achieved by excitation sculpting[59] using a 2 ms long Squa100.1000 selective pulse. For peptide backbone resonance assignment, using uniformly ^15N,^13C labeled peptides, the following series of 3D triple resonance BEST-TROSY[60] experiments were acquired with 25% non-uniform sampling (NUS): HNCO, HN(CA)CO, HN(CO)CA, HNCA, and HN(CO)CACB. For some peptides, we resolved assignment ambiguities by also acquiring a 3D (H)N(CA)NH spectrum. Furthermore, 2D ^13C-detected CACO and CON experiments[61] were measured. […]

[3] = Oligomeric state by SEC-MALS and native MS; details: SEC-MALS (and native MS where stated)
Description: To analyze the origin of this behavior and exploit it for peptide design we studied four peptides of identical amino acid composition but with two potential Glni+4 → Leui interactions (pink arrows in Fig. 1a) at different relative positions. The first such interaction is common to all peptides and the second one is shifted 1 (peptide P1-5), 2 (P2-6), 3 (P3-7), or 5 (P5-9) positions towards the C-terminus. After confirming that they were monomeric under our experimental conditions by size exclusion chromatography coupled to multiple angle light scattering (SEC-MALS) (Supplementary Fig. 1d), we used solution-state nuclear magnetic resonance (NMR) spectroscopy to probe their structural properties by exploiting the quantitative dependence of ^13Cα and ^1Hα NMR chemical shifts on residue-specific helical propensity, where larger ^13Cα and lower ^1Hα shifts indicate higher helicity.
We then used CD spectroscopy to study the secondary structure of peptides containing two and three pairs of concatenated Glni+4 → Leui interactions, (P3-7)2 and (P3-7)3, and obtained that they are highly helical and monomeric (Θ222 nm/Θ208 nm < 1) (Fig. 1c, d). […]
These samples were treated with 400 μL of methanol to precipitate the serum proteins and centrifuged for 30 min at 277 K. The supernatant was filtered and analyzed by HPLC to calculate the percentage of intact peptide in the sample. […]

Θ222 nm/Θ208 nm [1]: < 1
Residue-specific helical propensity (pHel) over contiguous residues [2]: > 0.9
Oligomeric state [3]: monomeric
Sequence: KKPGASLAALQALQALQAAQAAKKY [(P3-7)2, Gln-based single α-helix scaffold peptide]
